In patent publication US9944602B2, “Piperidinone herbicides” (E. I. DU PONT DE NEMOURS AND COMPANY, priority 2014, dated 2018):

How the values were obtained:
Format in all cases: in vivo
[1] = tested on: kochia (Kochia scoparia); experiment: Test A postemergence kochia; settings: 0 to 100 scale, 0 is no effect, 100 is complete control
Outline: (§1)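 Compounds in non-phytotoxic solvent with surfactant, applied preemergence as directed soil spray on seeds in loam–sand blend, or postemergence to plants 2–10 cm tall at one- to two-leaf stage. Greenhouse ~10 d, then visual injury versus untreated controls, 0 (no effect) to 100 (complete control).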

[2] = tested on: rice (Oryza sativa); experiment: Test C flooded paddy test rice; settings: Table C, Flood, scale 0 to 100
Excerpt: (§2) Plant species in the flooded paddy test consisted of rice (Oryza sativa), sedge, umbrella (small-flower umbrella sedge, Cyperus difformis), ducksalad (Heteranthera limosa), and barnyardgrass (Echinochloa crus-galli) grown to the 2-leaf stage for testing. At time of treatment, test pots were flooded to 3 cm above the soil surface, treated by application of test compounds directly to the paddy water, and then maintained at that water depth for the duration of the test. Treated plants and controls were maintained in a greenhouse for 13 to 15 d, after which time all species were compared to controls and visually evaluated. Plant response ratings, summarized in Table C, are based on a scale of 0 to 100 where 0 is no effect and 100 is complete control. A dash (-) response means no test result.

[3] = tested on: pigweed (Amaranthus retroflexus); experiment: Test A preemergence pigweed; settings: 0 to 100 scale, 0 no effect, 100 complete control
Outline: as §1

[4] = tested on: sedge, umbrella (small-flower umbrella sedge, Cyperus difformis); experiment: Test C flooded paddy test sedge, umbrella; settings: Table C, Flood, scale 0 to 100
Excerpt: as §2

[5] = tested on: galium (catchweed bedstraw, Galium aparine); experiment: Test A postemergence galium; settings: 0 to 100 scale, 0 is no effect, 100 is complete control
Outline: as §1

[6] = tested on: wheat (Triticum aestivum); experiment: Test A postemergence wheat; settings: 0 to 100 scale, 0 is no effect, 100 is complete control
Outline: as §1

[7] = tested on: foxtail, giant (giant foxtail, Setaria faberii); experiment: Test A preemergence foxtail, giant; settings: 0 to 100 scale, 0 no effect, 100 complete control
Outline: as §1

[8] = tested on: ragweed (common ragweed, Ambrosia elatior); experiment: Test A postemergence ragweed; settings: 0 to 100 scale, 0 is no effect, 100 is complete control
Outline: as §1

[9] = tested on: kochia (Kochia scoparia); experiment: Test A preemergence kochia; settings: 0 to 100 scale, 0 no effect, 100 complete control
Outline: as §1

[10] = tested on: barnyardgrass (Echinochloa crus-galli); experiment: Test C flooded paddy test barnyardgrass; settings: Table C, Flood, scale 0 to 100
Excerpt: as §2

[11] = tested on: barnyardgrass (Echinochloa crus-galli); experiment: Test A postemergence barnyardgrass; settings: 0 to 100 scale, 0 is no effect, 100 is complete control
Outline: as §1

[12] = tested on: pigweed (Amaranthus retroflexus); experiment: Test A postemergence pigweed; settings: 0 to 100 scale, 0 is no effect, 100 is complete control
Outline: as §1

[13] = tested on: barnyardgrass (Echinochloa crus-galli); experiment: Test A preemergence barnyardgrass; settings: 0 to 100 scale
Outline: as §1

[14] = tested on: ryegrass, Italian (Italian ryegrass, Lolium multiflorum); experiment: Test A postemergence ryegrass, Italian; settings: 0 to 100 scale, 0 is no effect, 100 is complete control
Outline: as §1

[15] = tested on: ducksalad (Heteranthera limosa); experiment: Test C flooded paddy test ducksalad; settings: Table C, Flood, scale 0 to 100
Excerpt: as §2

[16] = tested on: blackgrass (Alopecurus myosuroides); experiment: Test A postemergence blackgrass; settings: 0 to 100 scale, 0 is no effect, 100 is complete control
Outline: as §1

[17] = tested on: ragweed (common ragweed, Ambrosia elatior); experiment: Test A preemergence ragweed; settings: 0 to 100 scale, 0 no effect, 100 complete control
Outline: as §1

[18] = tested on: corn (Zea mays); experiment: Test A postemergence corn; settings: 0 to 100 scale, 0 is no effect, 100 is complete control
Outline: as §1

[19] = tested on: foxtail, giant (giant foxtail, Setaria faberii); experiment: Test A postemergence foxtail, giant; settings: 0 to 100 scale, 0 is no effect, 100 is complete control
Outline: as §1

[20] = tested on: ryegrass, Italian (Italian ryegrass, Lolium multiflorum); experiment: Test A preemergence ryegrass, Italian; settings: 0 to 100 scale, 0 no effect, 100 complete control
Outline: as §1

SMILES: O=C1NCCC(c2ccc(C(F)(F)F)cc2)C1C(=O)Nc1ccccc1C(F)(F)F (racemic) [Compound 12]
- Plant response rating, Kochia ([1]; 125 g ai/ha): 0
- Plant response rating, Kochia ([1]; 500 g ai/ha): 0
- Plant response rating ([2]; 125 g ai/ha): 0
- Plant response rating ([2]; 250 g ai/ha): 0
- Plant response rating ([2]; 500 g ai/ha): 0
- Plant response rating ([2]; 1000 g ai/ha): 0
- Pigweed plant response rating ([3]; 125 g ai/ha): 0
- Pigweed plant response rating ([3]; 500 g ai/ha): 0
- Plant response rating ([4]; 125 g ai/ha): 0
- Plant response rating ([4]; 250 g ai/ha): 0
- Plant response rating ([4]; 500 g ai/ha): 10
- Plant response rating ([4]; 1000 g ai/ha): 25
- Plant response rating, Galium ([5]; 125 g ai/ha): 0
- Plant response rating, Galium ([5]; 500 g ai/ha): 0
- Plant response rating, Wheat ([6]; 125 g ai/ha): 0
- Plant response rating, Wheat ([6]; 500 g ai/ha): 0
- Foxtail, Giant plant response rating ([7]; 125 g ai/ha): 20
- Foxtail, Giant plant response rating ([7]; 500 g ai/ha): 70
- Plant response rating, Ragweed ([8]; 125 g ai/ha): 0
- Plant response rating, Ragweed ([8]; 500 g ai/ha): 0
- Kochia plant response rating ([9]; 125 g ai/ha): 0
- Kochia plant response rating ([9]; 500 g ai/ha): 0
- Plant response rating ([10]; 125 g ai/ha): 0
- Plant response rating ([10]; 250 g ai/ha): 15
- Plant response rating ([10]; 500 g ai/ha): 20
- Plant response rating ([10]; 1000 g ai/ha): 25
- Plant response rating, Barnyardgrass ([11]; 125 g ai/ha): 20
- Plant response rating, Barnyardgrass ([11]; 500 g ai/ha): 60
- Plant response rating, Pigweed ([12]; 125 g ai/ha): 0
- Plant response rating, Pigweed ([12]; 500 g ai/ha): 0
- Barnyardgrass plant response rating ([13]; 125 g ai/ha, 0 no effect, 100 complete control): 20
- Plant response rating, Barnyardgrass ([13]; 500 g ai/ha, 0 is no effect, 100 is complete control): 70
- Plant response rating, Ryegrass, Italian ([14]; 125 g ai/ha): 0
- Plant response rating, Ryegrass, Italian ([14]; 500 g ai/ha): 0
- Plant response rating ([15]; 125 g ai/ha): 0
- Plant response rating ([15]; 250 g ai/ha): 35
- Plant response rating ([15]; 500 g ai/ha): 75
- Plant response rating ([15]; 1000 g ai/ha): 100
- Plant response rating, Blackgrass ([16]; 125 g ai/ha): 0
- Plant response rating, Blackgrass ([16]; 500 g ai/ha): 0
- Ragweed plant response rating ([17]; 125 g ai/ha): 0
- Ragweed plant response rating ([17]; 500 g ai/ha): 0
- Plant response rating, Corn ([18]; 125 g ai/ha): 0
- Plant response rating, Corn ([18]; 500 g ai/ha): 0
- Plant response rating, Foxtail, Giant ([19]; 125 g ai/ha): 20
- Plant response rating, Foxtail, Giant ([19]; 500 g ai/ha): 60
- Ryegrass, Italian plant response rating ([20]; 125 g ai/ha): 0
- Ryegrass, Italian plant response rating ([20]; 500 g ai/ha): 0
